Each structure is given as a SMILES string.

`CC(C)CCC(=O)OC1c2ccccc2C(=O)N1c1ccc2ccc(Cl)nc2n1` (stereo not drawn) gave a melting point of 147 °C.
Under `O=C(O)c1ccc(-c2cnc(-c3ccc(C(F)(F)F)cc3)s2)cc1` stands 294 to 295 °C; under `c1ccc(N2CCNNCC2)cc1`, 211 to 218 °C; under `CC(C)C(C)(C)NC(=S)Nc1cc(Cl)cc(Cl)c1`, 132 to 134 °C.
To `CC(C1CC1)C1NNC(=S)N(N)C1=O` (stereo not drawn) belongs 142 to 143 °C; to `CN1CCOc2c(C(=O)O)cc(Cl)cc21`, 202 to 204 °C; to `N#Cc1ccc(NC(=O)NC(=O)c2ccccc2Cl)c(Cl)c1Cl`, 278 to 282 °C.
Take `OCC1COC(c2c(F)cccc2F)=N1` (stereo not drawn): the melting point was found to be 82 °C.
The compound `O=C(O)c1ccc(Sc2ccc(OCc3ccc4ccccc4n3)cc2)cc1` registered a melting point of 195 to 197 °C.
Under `CCCn1nc(C(C)C)c(C(=O)OCOC(C)=O)c1Cc1ccc(-c2ccccc2-c2nnn(C(c3ccccc3)(c3ccccc3)c3ccccc3)n2)cc1` stands 124 to 128 °C.
Consider `CCC(CC)Nc1cc(C)nc(Cl)c1N`, for which the melting point lay in the range of 165 to 166 °C.
On to `CC1N=C(c2ccccn2)c2cc(Br)ccc2NC1=O` (stereo not drawn), for which the melting point is 227 to 229 °C.
Take `O=c1ccc(-c2ccc(Cc3nn[nH]n3)cc2)cn1Cc1ccc(Cl)cc1`: the melting point was 231 °C.
Under `CCOc1ccc(Oc2ccc(CNC(=O)c3sc(C)nc3C)cc2)cc1` stands 99 to 101 °C; under `O=C(Nc1ccc(Br)cn1)C(F)(F)F`, 70 to 72 °C; under `O=Cc1ccc2c(c1)ncn2-c1cccc(Br)c1`, 179 to 181 °C.
Under `CCOC(=O)C1=C(C(F)(F)F)Nc2n[nH]cc2C1c1ccccc1OC` (stereo not drawn) stands 144 to 146 °C; under `CC(C)CNC(=S)Nc1cccc(NC(=O)Nc2ccc(Cl)cc2)c1`, 195 to 196 °C.
Under `CCCN(CCC)C1Cc2cc3c(cc2C1)C(=O)N(Cc1ccc(S(N)(=O)=O)cc1)C3=O` stands 190 to 194 °C; under `N#CN1c2ccccc2C=Cc2ccccc21`, 108 to 109 °C; under `Oc1cc2c(cc1O)-c1ccccc1C2`, 155 to 156 °C.
Regarding `O=C(O)CCCCCCCCCCCNC(=O)OCc1ccccc1`, the melting point is 84 to 85 °C.
As for `Cc1ccc(N2C(=O)C(O)=C(C(=O)c3ccc(C(C)C)cc3)C2c2ccc(OC(F)F)cc2)nn1` (stereo not drawn), the melting point lay in the range of 263 to 265 °C.
For `CCC(C(=O)c1ccc(Cl)cc1)n1ncn(-c2ccc(N3CCNCC3)cc2)c1=O` (stereo not drawn), the melting point came to 176 °C.
`CC(C(=O)O)N(C(=O)OC(C)(C)C)c1ccc(N)cc1` (stereo not drawn) yielded a melting point of 128 to 133 °C.
In the case of `CC(C)C[C@H](NC(=O)OCc1ccccn1)C(=O)N[C@@H](C(C)C)[C@H](O)c1c(-c2ccccc2)c1=O`, the melting point was in the range of 52 to 59 °C.
Turning to `CC(=O)NC[C@H]1CN(c2ccc(Br)cn2)C(=O)O1`, the melting point was 166 to 168 °C.
To `CC1(C)C(=O)Nc2ccc(F)cc2N1C(=O)N1CCCC1` belongs 199 to 200 °C.
Compound `N#CCCNC(=O)c1cccc(-c2ccc3c(c2)C(Oc2cccc(C(F)(F)F)c2)CC3)c1` (stereo not drawn) had a melting point of 120 to 121 °C.
The compound `Cc1c(C=O)nc(-c2ccc(C(F)(F)F)cc2)n1C` returned a melting point of 144 °C.
For `COc1c2c(nc3ccccc13)CCN(Cc1ccccc1)CC2`, the melting point is less than 20 °C.
To `O=C(O)CCSC(SCCC(=O)O)c1cccc(CCc2ccc3ccc(Cl)cc3n2)c1` belongs 160 to 161 °C; to `CCOC(=O)c1cnn2c1nc(N1CCCCC1)c1cnc3c(cnn3CC)c12`, 183 to 184 °C; to `COc1cc(OCCOCc2ccccc2)cc2nc(-c3cc(C)nc(C)c3)[nH]c(=O)c12`, 178 to 180 °C.
To `O=C([C@H]1CCCN1C(=O)Nc1ccc2ccccc2c1)N1CCc2c([nH]c3ccccc23)C1` belongs 152 to 155 °C; to `CC(C)(C)OC(=O)N[C@@H](CC(N)=O)C(N)=O`, 190 to 192 °C; to `COc1ccc(Oc2nnn[nH]2)cc1`, 150 °C.
`C#CC(CC)(CC)NC(=O)C(CCN1CCN(c2ccccc2OC)CC1)c1ccccc1` (stereo not drawn) registered a melting point of 110 to 112 °C.
To `N#CCCNC(=O)c1cccc(-c2ccc3c(c2)N(c2ccc(Cl)c(Cl)c2)CC3)c1` belongs 166 to 196 °C; to `COc1ccccc1-c1nn(-c2ccccc2)c(=O)o1`, 112 to 115 °C; to `O=CN(O)C(COCc1ccccc1)CS(=O)(=O)N1CCN(c2cc(Cl)ncn2)CC1` (stereo not drawn), 118 to 120 °C.
To `N#CC(OC(=O)CC=Cc1ccccc1)c1ccc2ccccc2c1` (stereo not drawn) belongs 74 to 75 °C; to `CCNCCC(=O)N1c2ccccc2CCc2ccc(NC(=O)OCC)cc21`, 150 °C.
Under `CCCCc1nc(CO)c(S(=O)CC)n1Cc1ccc(-c2ccccc2C(=O)O)cc1` (stereo not drawn) stands 240 °C.
For the compound `COc1ccc(CN2C(=O)c3c(-c4ccccc4Cl)cc4c(c3C2=O)c2cc(OC)ccc2n4CC(O)CO)c(OC)c1` (stereo not drawn), the melting point lay in the range of 151 to 156 °C.
Under `COc1cc(C(C)=O)ccc1OCCN1C2CCC1CC(c1n[nH]c3ccccc13)C2` (stereo not drawn) stands 154 to 155 °C; under `O=C1CCC(N2Cc3c(OCc4ccc(CNC5CCOCC5)cc4)cccc3C2=O)C(=O)N1` (stereo not drawn), 231 to 233 °C.
`CCN(CC)c1ccc(S(=O)(=O)CCCCC(=O)O)cc1` showed a melting point of 106 to 108 °C.
`CS(=O)CCNC(=O)c1cccc(-c2cccc(Oc3cc(Cl)cc(Cl)c3)n2)c1` (stereo not drawn) registered a melting point of 158 to 159 °C.
Under `COc1cccc(Nc2ncc(C(=O)O)c(=O)[nH]2)c1` stands 247 to 249 °C.
To `CC1(C)CN=C2C(c3ccccc3)=[N+]([O-])c3cc(C(F)(F)F)ccc3N2C1` belongs 225 to 227 °C; to `CCCN(CCC)[C@H]1Cc2c[nH]c3ccc(C(=O)NN)c(c23)C1`, 137 to 138 °C.
Under `CN(c1cccc2cc(C3=NCC(C)(CN4CCN(S(C)(=O)=O)CC4)S3)[nH]c12)S(=O)(=O)c1cccs1` (stereo not drawn) stands 209 to 210 °C; under `COc1ccnc(-c2nc(=O)c3ccccc3s2)c1`, 214 to 215 °C; under `Cc1oc(-c2ccccc2)nc1CC=Cc1ccc(CCC2OC(=O)NC2=O)cc1` (stereo not drawn), 175 to 176 °C.
Consider `CCCn1c(N)c(N=O)c(=O)n(CC2CCCCC2)c1=O`, for which the melting point fell in the range of 225 to 226 °C.
Under `CCCOc1ccc(CCNC(=O)C(F)(F)F)cc1S(=O)(=O)N=CN(C)C` stands 142 °C; under `CCOC12CCC(=O)C3(C)Oc4c(OC)ccc5c4C31CCN(CCc1ccccc1)C2C5` (stereo not drawn), 86 to 89 °C; under `NC(=O)c1ccc(COc2ccc3c(c2)CCN(C2CCN(C4CCC4)CC2)C3=O)cc1`, 292 to 293 °C.
To `CC(=O)/C(=C(/Br)I)c1ccccc1` belongs 53 to 55 °C; to `COc1cc2c(cc1C)CCC=C2c1ncc[nH]1`, 197 to 229 °C; to `CN(C)Cn1cnc2c1c(=O)n(C)c(=O)n2C`, 121 to 123 °C.
As to `CCCCC12CCC3C4CCC(=O)C=C4CCC3C1CCC2(O)CC` (stereo not drawn), the melting point was in the range of 78 to 80 °C.
`Cc1nc(NC(=O)c2cccc(F)c2)sc1C(=O)NCc1ccccc1` gave a melting point of 162 to 165 °C.
To `CCCC(=O)Nc1ccccc1Oc1cc(-c2ccc(C(F)(F)F)cc2)ncn1` belongs 112 °C; to `Nc1ncnc2c1c(-c1cn[nH]c1)nn2Cc1oc2ccc(F)cc2c(=O)c1-c1ccccc1`, 211 to 214 °C.
To `CCC1CCN(C(=O)C(N)CCSCc2cn(C(c3ccccc3)(c3ccccc3)c3ccccc3)cn2)CC1` (stereo not drawn) belongs 115 to 120 °C.
Under `C[C@H]1C(=O)OCN1C(=O)OCc1ccccc1` stands 89 to 91 °C; under `Nc1nonc1-c1nc2ccccc2n1CC(=O)c1ccc(Cl)c([N+](=O)[O-])c1`, 198 to 200 °C; under `Nc1c(CC(=O)O)cccc1Oc1ccc(Cl)c(Cl)c1`, 125 to 127 °C.
For `O=C(Nc1ccc(Oc2ccccc2)cc1)c1cc([N+](=O)[O-])ccc1Cl`, the melting point was found to be 128 °C.
To `CC(=CC(=O)c1ccc(Cl)cc1)N(C)C` belongs 103 to 105 °C.
As to `CCCCNC1CC(C)(C)N(CCO)C(C)(C)C1`, the melting point lay in the range of 106 to 111 °C.
Take `O=C(c1ccccc1)c1ccc(-c2cnn3c(O)ncnc23)cc1`: the melting point is more than 300 °C.
In turn, `NC(=NCC(F)(F)F)Nc1ccnc(CSCCNc2nc(N)n[nH]2)n1` came in with a melting point of 199 to 201 °C.
Under `Nc1cc(Cl)nn1-c1c(Cl)cc(C(F)(F)F)cc1Cl` stands 128 to 129 °C; under `CNC(=O)C(CCO)C1(C)OCCc2c1[nH]c1ccccc21` (stereo not drawn), 169 to 171 °C.
To `Nc1ccc(Oc2ccc(C(=O)c3ccc(C#Cc4ccccc4)cc3)cc2)cc1` belongs 151 to 153 °C.
For `O=C(Cc1ccc(OCc2ccccc2)cc1OCc1ccccc1)N1CCN(Cc2ccccc2)CC1`, the melting point is 104 to 106 °C.
To `C=CCN1C(=O)c2cccc(C)c2Oc2ncccc21` belongs 58 to 60 °C.
To `COc1ccc(C(=O)OCc2ccc(C=O)cc2)cc1C(C)(C)C` belongs 75 to 76 °C; to `N#Cc1cc2ccc(OCC3CO3)cc2o1` (stereo not drawn), 90 to 92 °C; to `Oc1ccc(F)c(-c2c(-c3ccccc3)cnc3c(C(F)(F)F)cccc23)c1`, 85 °C.
Regarding `CCOC(=O)COC(=O)c1cccnc1C#N`, the melting point was found to be 74 °C.
In turn, `CCCCCCCCCCCP(=O)(c1ccccc1)c1ccccc1` showed a melting point of 69 °C.
To `CCOC(=O)c1cccc(-c2ccc(-c3ccc(C(F)(F)F)cc3)o2)c1` belongs 93 to 94 °C.
`Cc1c(C=O)c2c(c(C)c1NC=O)C(c1ccc(C(C)C)cc1)CO2` (stereo not drawn) gave a melting point of 123 to 124 °C.
`CCOc1ccc2c(c1)C(C)(c1ccccc1Cl)C(=O)N2S(=O)(=O)c1ccc(C(=O)NC(C)(C)C)cc1` (stereo not drawn) registered a melting point of 157 °C.

The term melting point denotes the temperature, or range, at which the solid turns liquid.
